Test results taken from ChEMBL document CHEMBL2074043, “Investigation of fractions present in the stem bark of Annickia kummeriae on their P-glycoprotein inhibitory pump activity” (Phytother Res, 2004).

Molecular target: ATP-dependent translocase ABCB1 (Homo sapiens, UniProt P08183)
Experiment: TP_TRANSPORTER: increase in intracellular accumulation of rhodamine 6G in […] cell
Format: functional, cell-based

ATP-dependent translocase ABCB1, sequence (P08183 whole entry): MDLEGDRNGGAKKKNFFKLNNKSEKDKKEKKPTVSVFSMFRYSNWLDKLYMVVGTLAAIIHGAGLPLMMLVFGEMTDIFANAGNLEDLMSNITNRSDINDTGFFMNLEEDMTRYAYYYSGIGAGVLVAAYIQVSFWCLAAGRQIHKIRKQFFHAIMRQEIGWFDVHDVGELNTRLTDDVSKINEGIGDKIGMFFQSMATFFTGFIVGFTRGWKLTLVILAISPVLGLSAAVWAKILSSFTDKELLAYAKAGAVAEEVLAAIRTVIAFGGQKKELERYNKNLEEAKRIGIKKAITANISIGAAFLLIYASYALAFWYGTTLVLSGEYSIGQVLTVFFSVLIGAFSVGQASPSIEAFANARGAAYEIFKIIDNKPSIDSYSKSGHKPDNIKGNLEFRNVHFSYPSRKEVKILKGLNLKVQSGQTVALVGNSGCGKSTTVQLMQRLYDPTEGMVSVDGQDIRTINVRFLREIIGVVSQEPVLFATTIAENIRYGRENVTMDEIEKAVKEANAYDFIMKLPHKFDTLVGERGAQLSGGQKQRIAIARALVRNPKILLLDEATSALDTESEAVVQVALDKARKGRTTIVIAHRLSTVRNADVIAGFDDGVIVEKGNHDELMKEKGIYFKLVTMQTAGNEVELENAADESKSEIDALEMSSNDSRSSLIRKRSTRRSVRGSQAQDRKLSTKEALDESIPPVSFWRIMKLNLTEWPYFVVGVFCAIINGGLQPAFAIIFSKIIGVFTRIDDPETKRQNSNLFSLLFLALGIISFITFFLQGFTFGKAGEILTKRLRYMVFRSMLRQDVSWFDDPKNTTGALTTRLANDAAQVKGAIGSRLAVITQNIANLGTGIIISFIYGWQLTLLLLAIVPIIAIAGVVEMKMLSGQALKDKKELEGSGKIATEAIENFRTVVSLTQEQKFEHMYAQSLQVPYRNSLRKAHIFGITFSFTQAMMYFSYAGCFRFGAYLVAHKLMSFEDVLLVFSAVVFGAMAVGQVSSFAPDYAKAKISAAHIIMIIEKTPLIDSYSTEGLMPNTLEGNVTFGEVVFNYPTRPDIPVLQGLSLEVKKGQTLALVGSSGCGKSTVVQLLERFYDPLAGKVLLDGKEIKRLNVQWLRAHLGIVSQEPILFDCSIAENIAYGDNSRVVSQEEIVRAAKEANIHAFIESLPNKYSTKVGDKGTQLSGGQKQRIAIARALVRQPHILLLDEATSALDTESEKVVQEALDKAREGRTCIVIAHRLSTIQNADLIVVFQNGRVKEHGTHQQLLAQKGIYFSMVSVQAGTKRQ

Activity: inhibitor [+]
Substance: STEM BARK OF ANNICKIA KUMMERIAE EXTRACT
